Reference: paper PMC3268193 (British Journal of Pharmacology, 2012)
Substitutions are numbered along the chain they refer to. Where “and” joins values, the source holds several entries; their conditions need not be identical. Equal values may be shown once.

Columns and labels:
human P2X1 receptor WT = molecular target: T1, human P2X1 receptor WT (Homo sapiens, UniProt P51575); experiment: Two-electrode voltage clamp, WT P2X1 receptor in Xenopus oocytes; type: cell-based
T1 sequence (P51575 1-399): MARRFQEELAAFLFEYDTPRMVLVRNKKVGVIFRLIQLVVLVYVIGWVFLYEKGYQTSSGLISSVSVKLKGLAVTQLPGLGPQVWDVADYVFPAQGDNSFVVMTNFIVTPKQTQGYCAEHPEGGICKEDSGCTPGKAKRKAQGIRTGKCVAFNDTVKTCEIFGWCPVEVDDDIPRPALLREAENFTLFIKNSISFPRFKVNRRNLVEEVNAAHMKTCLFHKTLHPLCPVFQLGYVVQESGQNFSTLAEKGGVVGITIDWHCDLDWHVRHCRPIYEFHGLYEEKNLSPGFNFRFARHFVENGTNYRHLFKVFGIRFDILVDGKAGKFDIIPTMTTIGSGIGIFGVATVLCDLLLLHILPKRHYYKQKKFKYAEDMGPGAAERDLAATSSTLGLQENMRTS

[1] = molecular target: T2, P2X1 receptor mutant K140L (Homo sapiens, UniProt P51575, K140L); experiment: Two-electrode voltage clamp, P2X1 mutant K140L; type: cell-based
T2 sequence (P51575 1-399 K140L): T1 sequence (P51575 1-399) with K140L

P2X2 Cys1(3-4) chimera = molecular target: T3, P2X2 Cys1(3-4) chimera (Homo sapiens, UniProt Q9UBL9, A144P/D148K/E146K/G151A/L147A/L150K/L154I/M149R/N152Q/R158K/V143T); experiment: Two-electrode voltage clamp, chimera P2X2 Cys1; type: cell-based
T3 sequence (Q9UBL9 1-471 V143T/A144P/E146K/L147A/D148K/M149R/L150K/G151A/N152Q/L154I/R158K): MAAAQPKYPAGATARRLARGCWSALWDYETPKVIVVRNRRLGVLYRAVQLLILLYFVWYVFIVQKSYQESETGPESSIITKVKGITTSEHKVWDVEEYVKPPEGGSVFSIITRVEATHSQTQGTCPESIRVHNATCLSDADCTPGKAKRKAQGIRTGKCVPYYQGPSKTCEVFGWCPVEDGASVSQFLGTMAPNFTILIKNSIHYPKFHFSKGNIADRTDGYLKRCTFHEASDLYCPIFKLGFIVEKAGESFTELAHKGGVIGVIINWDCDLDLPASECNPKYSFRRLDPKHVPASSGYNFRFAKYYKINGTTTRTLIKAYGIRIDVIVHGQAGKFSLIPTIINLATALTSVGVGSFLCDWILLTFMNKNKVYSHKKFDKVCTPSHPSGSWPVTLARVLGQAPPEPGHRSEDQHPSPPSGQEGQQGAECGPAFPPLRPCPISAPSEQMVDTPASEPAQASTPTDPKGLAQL

[2] = molecular target: T4, P2X2 receptor mutant D136K (Homo sapiens, UniProt Q9UBL9, D148K); experiment: Two-electrode voltage clamp, P2X2 mutant D136K; type: cell-based
T4 sequence (Q9UBL9 1-471 D148K): T3 sequence (Q9UBL9 1-471 V143T/A144P/E146K/L147A/D148K/M149R/L150K/G151A/N152Q/L154I/R158K) with T143V, P144A, K146E, A147L, R149M, K150L, A151G, Q152N, I154L, K158R

human P2X2 receptor WT = molecular target: T5, human P2X2 receptor WT (Homo sapiens, UniProt Q9UBL9); experiment: Two-electrode voltage clamp, WT P2X2 receptor in Xenopus oocytes; type: cell-based
T5 sequence (Q9UBL9 1-471): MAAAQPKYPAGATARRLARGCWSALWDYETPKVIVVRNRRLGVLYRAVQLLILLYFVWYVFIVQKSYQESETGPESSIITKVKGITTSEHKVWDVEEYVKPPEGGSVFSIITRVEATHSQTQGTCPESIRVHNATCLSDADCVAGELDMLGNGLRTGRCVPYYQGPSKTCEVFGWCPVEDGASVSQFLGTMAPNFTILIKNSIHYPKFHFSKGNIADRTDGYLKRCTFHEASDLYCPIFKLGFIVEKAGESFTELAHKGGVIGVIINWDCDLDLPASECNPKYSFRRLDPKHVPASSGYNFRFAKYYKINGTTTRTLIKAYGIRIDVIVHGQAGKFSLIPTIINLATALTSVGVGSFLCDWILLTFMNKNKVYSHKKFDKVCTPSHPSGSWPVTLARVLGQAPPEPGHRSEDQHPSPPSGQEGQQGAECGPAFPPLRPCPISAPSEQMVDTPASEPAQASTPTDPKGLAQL

[3] = molecular target: T6, P2X1 receptor mutant K136E (Homo sapiens, UniProt P51575, K136E); experiment: Two-electrode voltage clamp, P2X1 mutant K136E; type: cell-based
T6 sequence (P51575 1-399 K136E): T1 sequence (P51575 1-399) with K136E

[4] = tested on: WT or mutant P2X receptors; experiment: Holding current in the absence of ATP; type: cell-based, human
[5] = 1 nM antagonist, EC90 ATP (10 µM)

Row | Schild slope (human P2X1 receptor WT; WT P2X1) | Hill slope of NF449 inhibition curve (human P2X1 receptor WT; WT P2X1, vs EC90 ATP) | Reduction of ATP-evoked current [1, 5] | IC50 (P2X2 Cys1(3-4) chimera; read-out: NF449 IC50, vs EC90 ATP) [nM] | Effect of mutation on NF449 sensitivity [2] | NF449 pIC50 (human P2X2 receptor WT; P2X2 WT, vs EC90 concentration of ATP) | Hill slope of NF449 inhibition curve (human P2X2 receptor WT; WT P2X2, vs EC90 ATP) | IC50 (human P2X2 receptor WT; read-out: NF449 IC50, P2X2 receptor, vs EC90 ATP (30 µM)) | Reduction of ATP-evoked current [3, 5] | Effect on holding current ([4]; NF449 10 µM) | Difference in suramin sensitivity between human P2X1 and P2X2 receptors (human P2X1 receptor WT) [fold] | Effect of mutation on suramin sensitivity [1] | Increase in suramin sensitivity compared with WT P2X2 (P2X2 Cys1(3-4) chimera) [fold] | Effect of mutation on suramin sensitivity [2] | Reduction of responses to ATP (human P2X2 receptor WT; P2X2, 100 µM suramin, ATP 30 µM (EC90)) [%] | Effect of mutation on suramin sensitivity [3] | Compound | Effect on holding current ([4]; suramin 100 µM)
1 | 1.17± 0.16 | 0.98 ± 0.13 | 40–70% | 1100 | no effect | 5.86 ± 0.09 | 1.61 ± 0.08 | ~1000 nM and ~1500 nM | 40–70% | no effect | – | – | – | – | – | – | O=C(Nc1cc(C(=O)Nc2ccc(S(=O)(=O)O)cc2S(=O)(=O)O)cc(C(=O)Nc2ccc(S(=O)(=O)O)cc2S(=O)(=O)O)c1)Nc1cc(C(=O)Nc2ccc(S(=O)(=O)O)cc2S(=O)(=O)O)cc(C(=O)Nc2ccc(S(=O)(=O)O)cc2S(=O)(=O)O)c1 [NF449, 4,4′,4′′,4′′′-(carbonylbis(imino-5,1,3-benzenetriyl-bis(carbonylimino)))tetrakis-benzene-1,3-disulphonic acid] | –
2 | – | – | – | – | – | – | – | – | – | – | ~60 | no effect | ~30 | no effect | ~50 | no effect | Cc1ccc(C(=O)Nc2ccc(S(=O)(=O)O)c3cc(S(=O)(=O)O)cc(S(=O)(=O)O)c23)cc1NC(=O)c1cccc(NC(=O)Nc2cccc(C(=O)Nc3cc(C(=O)Nc4ccc(S(=O)(=O)O)c5cc(S(=O)(=O)O)cc(S(=O)(=O)O)c45)ccc3C)c2)c1 [suramin] | no effect
